Measured values: patent publication US12391652B2 (priority 2019, dated 2025)

How the values were obtained:
[1] = tested on: soybean rust fungus (Phakopsora pachyrhizi); experiment: Test Example 1: curative foliar spray against soybean rust on potted soybean; type: in vivo; settings: for Efficacy (%): 2 ppm foliar spray on soybean (cv; Kurosengoku) 4 days after inoculation, lesion area 7 days after spraying vs untreated group
Protocol: Each of 5 parts of the Ra1 type crystal form, or the Ra4 type crystal form as comparison control, 35 parts of a mixture of white carbon and ammonium polyoxyethylene alkyl ether sulfate (weight ratio is 1:1) and 60 parts of water were mixed, and the mixture was then finely-ground by a wet grinding method to obtain a formulation. Water was then added to the formulation so as to be 2 ppm as the concentration of the Ra1 type crystal form or the Ra4 type crystal form to obtain dilutions respectively.
Each of plastic pots was filled with soil and thereto soybean (cv; Kurosengoku) seeds were sown and the soybeans were grown in a greenhouse for 15 days. Thereafter, an aqueous suspension of spores of soybean rust fungus (Phakopsora pachyrhizi) was spraying-inoculated. After the inoculation, the soybeans were placed under a dark and wet condition at 23° C. for 1 night and were further cultivated in a greenhouse for 3 days, and the above-mentioned diluted dilutions were sprayed to foliar parts so as to adhere adequately on the leaves of the above-mentioned soybean. After spraying the dilutions, the plants were air-dried and were placed under a dark and wet condition at only night, and after 7 days of the spraying, the lesion area was observed (lesion area in treated group).
Whereas, in the untreated group, the similar procedures to those of the treated group except that the Ra1 type crystal form or the Ra4 type crystal form were not applied, were carried out and the lesion area of soybean rust disease in the untreated group was observed (lesion area in untreated group).
From each of the lesion area in the treated group or the untreated group respectively, the efficacy in the treated group was calculated by the following “Equation 1”. Efficacy (%)=[1−(lesion area in the treated group/lesion area in the untreated group)]×100 [Equation 1]

[2] = tested on: blast fungus (Pyricularia oryzae); type: in vivo; settings: for Efficacy (%): 50 ppm foliar spray on rice (cv; Hinohikari), 8 days outdoor, then 11 days in contact with infected rice plants, lesion area vs untreated group; for Efficacy compared to the Ra4 type crystal form: rice blast, 50 ppm

Structure (SMILES) | Efficacy (%) [1] | Efficacy compared to the Ra4 type crystal form ([1]; soybean rust, 2 ppm) | Efficacy (%) [2] | Efficacy compared to the Ra4 type crystal form [2]
CC1CC(C)(C)c2cccc(NC(=O)c3cn(C)nc3C(F)F)c21 (racemic) [Ra1 type crystal form, 3-(difluoromethyl)-1-methyl-N-(1,1,3-trimethyl-2,3-dihydro-1H-inden-4-yl)-1H-pyrazole-4-carboxamide] | 72% | higher efficacy compared to the Ra4 type crystal form | – | –
CC1CC(C)(C)c2cccc(NC(=O)c3cn(C)nc3C(F)F)c21 (racemic) [Ra4 type crystal form, 3-(difluoromethyl)-1-methyl-N-(1,1,3-trimethyl-2,3-dihydro-1H-inden-4-yl)-1H-pyrazole-4-carboxamide, reference compound] | 54% | – | 50% | –
CC1CC(C)(C)c2cccc(NC(=O)c3cn(C)nc3C(F)F)c21 (racemic) [Ra2 type crystal form, 3-(difluoromethyl)-1-methyl-N-(1,1,3-trimethyl-2,3-dihydro-1H-inden-4-yl)-1H-pyrazole-4-carboxamide] | – | – | 85% | higher efficacy compared to the Ra4 type crystal form
CC1CC(C)(C)c2cccc(NC(=O)c3cn(C)nc3C(F)F)c21 (racemic) [Ra3 type crystal form, 3-(difluoromethyl)-1-methyl-N-(1,1,3-trimethyl-2,3-dihydro-1H-inden-4-yl)-1H-pyrazole-4-carboxamide] | – | – | 75% | higher efficacy compared to the Ra4 type crystal form
